According to the CombiSolv-Exp solvation set (Vermeire and Green 2021):

Assay: solvent given as SMILES

C=CC=C
Settings | solvation free energy, 298 K [kcal/mol]
in C1CCC2CCCCC2C1 | -2.17
in C1COCCO1 | -2.03
in C=Cc1ccccc1 | -2.36
in CC1COC(=O)O1 | -1.97
in CC#N | -2.15
in CC(=O)N(C)C | -2.56
in CC(C)(C)O | -2.07
in CC(C)=O | -2.74
in CC(C)CCO | -2.09
in CC(C)CO | -2.06
in CC(C)O | -2.09
in CCC(C)(C)O | -2.16
in CCC(C)CO | -2.06
in CCC(C)O | -2.07
in CCC(O)CC | -2.09
in CCCC(C)O | -2.07
in CCCCCCC | -2.67
in CCCCCCCCCCCCCCCC | -2.1
in CCCCCO | -2.11
in CCCCO | -2.11
in CCCO | -2.16
in CCOC(C)=O | -2.84
in CCOCC | -2.72
in CN1CCCC1=O | -2.36
in CN(C)C=O | -2.29
in CN(C)P(=O)(N(C)C)N(C)C | -2.46
in CO | -2.14
in COC(C)=O | -2.26
in COCCOCCOCCOC | -2.05
in CS(C)=O | -1.8
in Cc1ccc(C)cc1 | -2.45
in Cc1cccc(C)c1 | -2.48
in Cc1ccccc1C | -2.46
in ClCCl | -2.83
in Nc1ccccc1 | -2.06
in O | 0.6
in OCCCOCCCO | -1.73
in OCCO | -1.35
in OCc1ccccc1 | -1.95

COc1ccc2cc(C(C)C(=O)O)ccc2c1 (centres undefined)
Settings | solvation free energy, 298 K [kcal/mol]
in C1CCOC1 | -17.9
in C1COCCO1 | -17.7
in CC(C)CCO | -16.4
in CC(C)CO | -16.3
in CC(C)O | -16.6
in CCC(C)O | -16.6
in CCCC(C)O | -16.5
in CCCCCCCCCCO | -16.2
in CCCCCCCO | -16.5
in CCCCCCO | -16.5
in CCCCCO | -16.5
in CCCCO | -16.6
in CCCCOC(C)=O | -16.6
in CCCO | -16.6
in CCO | -16.7
in CCOC(C)=O | -17.1
in CCOCC | -16.7
in CO | -16.7
in COC(C)=O | -17

O=C(O)c1ccc(CO)cc1
Settings | solvation free energy, 298 K [kcal/mol]
in C=CCCCCCCCCCCCCCC | -8.43
in O | -13.3

O=C(O)c1ccccc1
Settings | solvation free energy, 298 K [kcal/mol]
in C1CCOC1 | -9.93
in C1COCCO1 | -9.81
in C=CCCCCCCC=C | -6.26
in C=CCCCCCCCCCCCCCC | -5.84
in CC(=O)N(C)C | -10.1
in CC(C)=O | -9.63
in CC(C)CCO | -9.41
in CC(C)CO | -9.4
in CC(C)O | -9.63
in CCC(C)O | -9.41
in CCCC(C)O | -9.52
in CCCCCCCCCCO | -9.21
in CCCCCCCO | -9.27
in CCCCCCO | -9.39
in CCCCCO | -9.44
in CCCCO | -9.58
in CCCCOC(C)=O | -9.29
in CCCCOCCCC | -8.8
in CCCO | -9.6
in CCO | -9.71
in CCOC(C)=O | -9.43
in CCOCC | -9.45
in CN(C)C=O | -10.1
in CNC=O | -10
in CO | -9.81
in O | -6.96

CC(C)COC=O
Settings | solvation free energy, 298 K [kcal/mol]
in O | -2.22

O=[N+]([O-])c1ccccc1O
Settings | solvation free energy, 298 K [kcal/mol]
in CC(C)CC(C)(C)C | -6.5
in CCCCCC | -6.48
in CCCCCCC | -6.49
in CCCCCCCC | -6.49
in CCCCCCCCCC | -6.47
in Cc1cccc(C)c1 | -7.73
in O | -4.58

O=C(O)c1ccccc1O
Settings | solvation free energy, 298 K [kcal/mol]
in C1CCOC1 | -10.8
in C1COCCO1 | -10.3
in CC(C)(C)O | -10.4
in CC(C)=O | -10.5
in CC(C)CCO | -10.1
in CC(C)CO | -10.2
in CC(C)O | -10.4
in CCC(C)=O | -10.4
in CCC(C)O | -10.3
in CCCC(C)O | -10.3
in CCCCCCCCO | -10.2
in CCCCCCO | -10.2
in CCCCCO | -10.2
in CCCCO | -10.3
in CCCCOC(C)=O | -10
in CCCCOCCCC | -9.58
in CCCO | -10.3
in CCO | -10.4
in CCOC(C)=O | -10.1
in CCOCC | -10.2
in CN(C)C=O | -10.9
in CO | -10.5
in COC(C)(C)C | -10.2
in COC(C)=O | -10.2
in Clc1ccccc1 | -8.36
in NC=O | -9.97
in O | -7.35
in O=C1CCCCC1 | -10.4

Cc1ccccc1C(=O)N(O)c1ccccc1
Settings | solvation free energy, 298 K [kcal/mol]
in O | -11.5

FCCF
Settings | solvation free energy, 298 K [kcal/mol]
in CCCO | -3.64

N#CCCOCCC#N
Settings | solvation free energy, 298 K [kcal/mol]
in CCCCCCC | -7.82

CC1(C)C2=CCCC(C)(C)C23CCC1C3 (centres undefined)
Settings | solvation free energy, 298 K [kcal/mol]
in O | 0.71

CCCC(=O)CC(=O)CCC
Settings | solvation free energy, 298 K [kcal/mol]
in O | -4.33

Cc1ccc(Br)cc1
Settings | solvation free energy, 298 K [kcal/mol]
in O | -1.39

ClC=C(Cl)Cl
Settings | solvation free energy, 298 K [kcal/mol]
in C1COCCO1 | -4.91
in CC(=O)N(C)C | -4.8
in CCCCCCCCC=CCCCCCCCC(=O)OCC(COC(=O)CCCCCCCC=CCCCCCCCC)OC(=O)CCCCCCCC=CCCCCCCCC | -4.37
in CCCCCCCCCC | -3.84
in CCCCCCCCO | -4.09
in CCCCN(C=O)CCCC | -4.62
in CNC(C)=O | -4.35
in O | -0.46

C=C1CCC2C(C)CCC3C(C12)C3(C)C (centres undefined)
Settings | solvation free energy, 298 K [kcal/mol]
in O | 0.42

CC(C)=CCCC(C)C1C=CC(C)=CC1 (centres undefined)
Settings | solvation free energy, 298 K [kcal/mol]
in O | -0.11

O=C(O)c1ccc(Br)cc1
Settings | solvation free energy, 298 K [kcal/mol]
in CN(C)C=O | -12.3
in O | -6.67

CC1=CCCCC1
Settings | solvation free energy, 298 K [kcal/mol]
in O | 0.66

CCc1ccc(C)cc1
Settings | solvation free energy, 298 K [kcal/mol]
in O | -0.95

Nc1ccc(Cc2ccc(N)cc2)cc1
Settings | solvation free energy, 298 K [kcal/mol]
in O | -16.3

NC(N)=O
Settings | solvation free energy, 298 K [kcal/mol]
in O | -13.6

Cc1cccc(C)c1
Settings | solvation free energy, 298 K [kcal/mol]
in CC#N | -5.18
in CC(C)CC(C)(C)C | -5.12
in CC(O)CO | -4.13
in CCCCCCC | -5.39
in CCCCCCCCCCCCCCCC | -5.27
in CCCCCCCCO | -5.16
in CCCCOC(C)=O | -6.06
in CNC=O | -4.82
in COCCO | -5.09
in ClCCCl | -5.98
in NC=O | -3.29
in NCCO | -3.85
in O | -0.78
in O=CN1CCOCC1 | -5.03
in OCCO | -3.42
in OCCOCCO | -4.26
in OCCOCCOCCO | -4.4
in c1ccccc1 | -5.99

Cc1cncc(C)c1
Settings | solvation free energy, 298 K [kcal/mol]
in O | -4.84

CCNc1nc(Cl)nc(NC(C)(C)C#N)n1
Settings | solvation free energy, 298 K [kcal/mol]
in O | -13.2
